# ChEMBL document CHEMBL1140637, “QSAR modeling of matrix metalloproteinase inhibition by N-hydroxy-alpha-phenylsulfonylacetamide derivatives” (Bioorg Med Chem, 2007)
# What was measured:
# [1] = target: T1, Interstitial collagenase (Homo sapiens) (UniProt P03956); assay: Inhibition of MMP1
# T1 sequence (whole entry): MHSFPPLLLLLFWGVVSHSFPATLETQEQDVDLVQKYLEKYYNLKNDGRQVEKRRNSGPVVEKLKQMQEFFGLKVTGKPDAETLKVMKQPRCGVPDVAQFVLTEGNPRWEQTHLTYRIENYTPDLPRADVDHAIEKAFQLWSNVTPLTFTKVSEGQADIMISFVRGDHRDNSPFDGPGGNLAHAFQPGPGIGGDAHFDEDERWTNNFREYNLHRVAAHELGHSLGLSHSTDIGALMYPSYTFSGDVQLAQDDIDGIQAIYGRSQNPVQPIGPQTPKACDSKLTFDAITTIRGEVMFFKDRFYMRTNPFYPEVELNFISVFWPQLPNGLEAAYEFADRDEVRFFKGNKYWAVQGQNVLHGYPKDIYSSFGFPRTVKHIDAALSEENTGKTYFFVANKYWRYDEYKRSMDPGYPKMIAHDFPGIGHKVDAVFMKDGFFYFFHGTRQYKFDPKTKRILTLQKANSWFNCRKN
# [2] = target: Matrix metalloproteinase-9 (Homo sapiens) (UniProt P14780); assay: Inhibition of MMP9
# [3] = target: Collagenase 3 (Homo sapiens) (UniProt P45452)
# Chain of Matrix metalloproteinase-9 (Homo sapiens) (P14780 whole entry): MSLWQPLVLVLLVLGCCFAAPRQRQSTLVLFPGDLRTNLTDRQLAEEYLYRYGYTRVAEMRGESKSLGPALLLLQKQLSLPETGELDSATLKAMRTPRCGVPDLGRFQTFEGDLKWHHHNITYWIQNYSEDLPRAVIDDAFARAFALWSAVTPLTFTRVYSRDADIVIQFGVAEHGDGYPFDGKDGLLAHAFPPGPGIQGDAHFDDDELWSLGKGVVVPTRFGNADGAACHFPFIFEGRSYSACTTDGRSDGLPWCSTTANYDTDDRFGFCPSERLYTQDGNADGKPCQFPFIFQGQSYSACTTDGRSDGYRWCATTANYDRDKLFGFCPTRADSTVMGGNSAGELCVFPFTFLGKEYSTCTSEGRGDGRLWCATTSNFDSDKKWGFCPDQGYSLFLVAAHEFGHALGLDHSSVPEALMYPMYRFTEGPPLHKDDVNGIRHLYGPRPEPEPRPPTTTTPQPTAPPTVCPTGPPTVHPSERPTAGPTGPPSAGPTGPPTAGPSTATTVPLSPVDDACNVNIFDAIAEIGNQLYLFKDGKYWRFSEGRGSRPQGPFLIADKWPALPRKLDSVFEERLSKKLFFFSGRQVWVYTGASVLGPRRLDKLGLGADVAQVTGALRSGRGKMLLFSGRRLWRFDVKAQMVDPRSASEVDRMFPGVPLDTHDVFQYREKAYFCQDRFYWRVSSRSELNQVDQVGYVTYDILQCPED
SMILES,log(10^6/IC50) [1],log(10^6/IC50) [2],log(10^6/IC50) [3]
COc1ccc(S(=O)(=O)C2(C(=O)NO)CCN(C(C)C)CC2)cc1,2.35,3.43,4.47
C#CC[C@](Cc1cccnc1)(C(=O)NO)S(=O)(=O)c1ccc(OC)cc1,3.17,4.08,4.49
C=C(C)N1CCC(C(=O)NO)(S(=O)(=O)c2ccc(OC)cc2)CC1,2.86,4.41,5.15
O=C(NO)C1(S(=O)(=O)c2ccc(-c3ccco3)cc2)CCN(Cc2ccccc2)CC1,4.4,5.52,
CCCCOc1ccc(S(=O)(=O)C2(C(=O)NO)CCN(CCCOc3ccccc3)CC2)cc1,2.42,5.3,
O=C(NO)C1(S(=O)(=O)c2ccc(OCc3ccccc3)cc2)CCN(Cc2ccccc2)CC1,,5.52,
CCN(CC)CCOc1ccc(C[C@](C)(C(=O)NO)S(=O)(=O)c2ccc(-c3ccco3)cc2)cc1,4.85,5.4,5.7
CCN1CCC(C(=O)NO)(S(=O)(=O)c2ccc(Oc3ccc(Cl)cc3)cc2)CC1,2.76,6,6
CCCCOc1ccc(S(=O)(=O)C2(C(=O)NO)CCN(CC)CC2)cc1,2.15,4.37,5.7
COc1ccc(S(=O)(=O)C2(C(=O)NO)CCN(Cc3ccc4ccccc4c3)CC2)cc1,3.43,5.3,
COc1ccc(S(=O)(=O)[C@](CCC(C)C)(Cc2cccnc2)C(=O)NO)cc1,3.24,,4.05
COc1ccc(S(=O)(=O)C2(C(=O)NO)CCN(CCOc3ccccc3)CC2)cc1,3.2,4.59,5.52
COc1ccc(S(=O)(=O)C2(C(=O)NO)CCN(Cc3ccc(F)cc3)CC2)cc1,3.18,4.8,5.7
CCCCOc1ccc(S(=O)(=O)C2(C(=O)NO)CCN(CCCC)CC2)cc1,,4.55,5.7
COc1ccc(CCN2CCC(C(=O)NO)(S(=O)(=O)c3ccc(OC)cc3)CC2)cc1,3.18,4.47,5.7
CCC(CC)COc1ccc(S(=O)(=O)C2(C(=O)NO)CCN(Cc3ccccc3)CC2)cc1,2.5,4.85,5.3
CCCCOc1ccc(S(=O)(=O)C2(C(=O)NO)CCN(Cc3ccc(Cl)c(Cl)c3)CC2)cc1,2.44,4.7,5.3
COc1ccc(S(=O)(=O)[C@](C)(Cc2ccc(OCCN3CCCCC3)cc2)C(=O)NO)cc1,3.62,5.05,
O=C(NO)C1(S(=O)(=O)c2ccc(Oc3ccc(Cl)cc3)cc2)CCNCC1,2.9,5.7,5.7
COc1ccc(S(=O)(=O)C2(C(=O)NO)CCN(Cc3ccc(-c4ccccc4)cc3)CC2)cc1,2.88,4.89,5.52
C=C(C)[C@@](C)(C(=O)NO)S(=O)(=O)c1ccc(OC)cc1,3.62,4.96,4.85

SMILES,log(10^6/IC50) [1],log(10^6/IC50) [2],log(10^6/IC50) [3]
CCCCOc1ccc(S(=O)(=O)C2(C(=O)NO)CCN(Cc3cccc(OC)c3)CC2)cc1,2.82,5.52,
COc1ccc(S(=O)(=O)C(C)(Cc2ccc(-c3ccccc3)cc2)C(=O)NO)cc1 (stereo unspecified),3.8,4.64,
COc1ccc(S(=O)(=O)C2(C(=O)NO)CCN(Cc3ccc(-c4ccccn4)cc3)CC2)cc1,3.37,5.22,
COc1ccc(S(=O)(=O)[C@](C)(Cc2ccc(OCCCN3CCN(c4cccc(Cl)c4)CC3)cc2)C(=O)NO)cc1,3.23,5.15,5.4
COc1ccc(S(=O)(=O)C2(C(=O)NO)CCN(C(C)(C)C)CC2)cc1,,3.19,3.83
"CCN(CC)CCOc1ccc(CC(C)(C(=O)NO)S(=O)(=O)c2ccc(OC)cc2)cc1 (single isomer, unassigned)",3.5,4.89,4.82
COc1ccc(S(=O)(=O)C2(C(=O)NO)CCN(Cc3ccc(Cl)c(Cl)c3)CC2)cc1,3.35,5.22,5.7
CCCCOc1ccc(S(=O)(=O)C2(C(=O)NO)CCN(CCOc3ccccc3)CC2)cc1,2.54,5.3,
O=C(NO)C1(S(=O)(=O)c2ccc(Oc3ccc(Cl)cc3)cc2)CCN(Cc2ccccc2)CC1,3.1,6,6
COc1ccc(S(=O)(=O)C2(C(=O)NO)CCN(Cc3cccc(OC)c3)CC2)cc1,3.28,5.05,5.7
COc1ccc(S(=O)(=O)C2(C(=O)NO)CCN(CCCOc3ccccc3)CC2)cc1,2.92,4.36,5.4
COc1ccc(S(=O)(=O)C(C)(C/C=C/c2ccccc2)C(=O)NO)cc1 (stereo unspecified),3.52,4.8,4.92
COc1ccc(S(=O)(=O)[C@@](C)(CC2CCCCC2)C(=O)NO)cc1,3.49,5.05,4.62
COc1ccc(CN2CCC(C(=O)NO)(S(=O)(=O)c3ccc(Oc4ccc(Cl)cc4)cc3)CC2)cc1,3.31,6,
CCCCOc1ccc(S(=O)(=O)C2(C(=O)NO)CCN(C)CC2)cc1,2.47,5,5.7
CCCCOc1ccc(S(=O)(=O)C2(C(=O)NO)CCN(Cc3ccc(OCCN4CCCCC4)cc3)CC2)cc1,2.71,5.7,
COc1ccc(S(=O)(=O)C2(C(=O)NO)CCN(Cc3ccc(-c4cccs4)cc3)CC2)cc1,3.27,4.96,5.52
COc1ccc(S(=O)(=O)C2(C(=O)NO)CCN(Cc3ccc(OCCN4CCCCC4)cc3)CC2)cc1,3.41,5.52,5.52
CCCCN1CCC(C(=O)NO)(S(=O)(=O)c2ccc(Oc3ccc(Cl)cc3)cc2)CC1,2.97,6,6
COc1ccc(S(=O)(=O)C2(C(=O)NO)CCN(Cc3ccccc3)CC2)cc1,3.31,5,5.7
COc1ccc(S(=O)(=O)C2(C(=O)NO)CCN(Cc3ccc(C)cc3)CC2)cc1,3.31,4.77,5.7
